From US20260325580A1, “CYTOTOXICITY TARGETING CHIMERAS FOR CAR-T AND CAR-NK CELLS” (GLAXOSMITHKLINE INTELLECTUAL PROPERTY DEVELOPMENT LIMITED, priority 2023, published 2026)
Where two headings read alike, the source gives them in different places. Values belong to the compound of their own block, whether it stands above or below them.

What was measured:
Assay type in all cases: cell-based
LNCap (PSMA+) cells [1] = experiment: Pro-inflammatory cytokine (IFN-gamma) production assay, PSMA-expressing target cells (LNCap), MSD ELISA; details: Homo sapiens, EC50 in molar (M)
Protocol: (§1) Example 4: Immune Effector Cell (i.e., Anti-Cotinine CAR-T Cell, Anti-Cotinine CAR-NK92 Cell) Functional Study: Pro-Inflammatory Cytokine (e.g., IFN-Gamma) Production Assay
(§2) An ELISA assay was performed to quantify the level of IFN-gamma production by anti-cotinine CAR-T cells in the presence of CyTaC using a Meso Scale Discovery (MSD) T-Plex Multispot Cytokine Assay System. To perform the ELISA assay, each sample was obtained from the co-incubation of anti-cotinine immune effector cells (i.e. CAR-T, CAR-NK92), antigen-expressing target cells, and respective antigen-targeting CyTaCs. CAR-T and CAR-NK cells were prepared as described above in Examples 2 and 3, respectively.
Antigen-expressing target cells were pre-seeded at a density 1.5×10^4 cells per 100 μL of media in each well of a 96-well plate and grown overnight. For functional confirmation of immune effector cell (i.e. anti-cotinine CAR-T cells, anti-cotinine CAR-NK92 cells) activation, 100 nM or 10 nM of CyTaC was introduced into each well where the target cells were seeded to activate the anti-cotinine immune effector cell. For dose response determinations, 10 μM to 0.01 nM of CyTaC was added to the wells. The anti-cotinine immune effector cells (i.e. CAR-T, CAR-NK92) were next added to the wells at a fixed ratio (between 1:1 and 10:1) of effector cells to antigen-expressing After co-incubation, the supernatants were removed from the wells and analyzed to determine IFNγ release using a pro-inflammatory cytokine production assay (Meso Scale Diagnostics V-PLEX Human IFNγ Kit) according to manufacturer's protocol.
For dose response determinations, EC50 calculations were done using Graphpad Prism Software, specifically a nonlinear regression curve fit (Y=Bottom+(Top−Bottom)/(1+10^((Log EC50−X)*HillSlope))).
(§3) CyTaC compounds of Formula (I) were tested for anti-cotinine immune cell (i.e. CAR-T, CAR-NK92) activation as measured by IFN-Gamma production in the above assay in one or more experimental runs and the results are shown in Table 5. Potency of the compounds of Formula (I) is reported as a pEC50 value. The pEC50 value is the negative log of the EC50 value, wherein the EC50 value is half maximal effective concentration measured in molar (M). For compounds tested in more than one experimental run, the pEC50 value is reported as an average.

[2] = tested on: PSMA-expressing target cells; experiment: In vitro cell killing, Method 1: CellTiter-Glo luminescent cell viability assay, PSMA-expressing target cells; details: 24 hours, EC50 in molar (M)
Protocol: (§4) In vitro cell killing of antigen expressing target cells in the presence of anti-cotinine CAR-T or CAR-NK cells and antigen matched CyTaCs was evaluated by three different methods: Cell Titler Glo assay (method 1); Real-Time Cell Analysis (RTCA) Impedance Assay (method 2); and live cell analysis assay (method 3), as described below.
(§5) A luminescent assay was performed to quantify the number of viable cells remaining following co-incubation of antigen-expressing adherent target cells, anti-cotinine CAR-T cells, and antigen matched CyTaCs using a CellTiter-Glo Luminescent Cell Viability Assay (Promega). […] After co-incubation, the supernatants were removed from the wells, the residual adherent target cells in the wells were then analyzed for cell viability using CellTiter-Glo® Luminescent Cell Viability Assay (Promega) according to manufacturer's instructions, as described below in Example 5.
(§6) CyTaC compounds of Formula (I) were evaluated for anti-cotinine immune cell mediated cell cytotoxicity in the above assay in one or more experimental runs and the results are shown in Table 6 below and FIGS. 2A, 2B, and 2C. […] The pEC50 value is the negative log of the EC50 value, wherein the EC50 value is half maximal effective concentration measured in molar (M). […]

LNCap (PSMA+) cells [3] = experiment: In vitro cell killing, Method 3: Live-Cell Analysis assay (Incucyte), PSMA-expressing target cells (LNCap); details: Homo sapiens, 24 hour timepoint, 5:1 effector cells to target cells, EC50 in molar (M), read-out: Incucyte ® pEC50, LNCap (converted)
Protocol: as §4
Method 3: Live-Cell Analysis Assay (Incucyte®)
A Live-Cell Analysis assay (Incucyte®) was performed to assess in vitro cell killing of fluorescently-labelled antigen-expressing adherent target cells co-incubated with anti-cotinine immune effector cells (i.e. CAR-T cells, CAR-NK92 cells) and antigen matched CyTaCs. To perform the live-cell analysis assay, fluorescently-labelled antigen-expressing target cells were seeded at a density of 1.0×10^4 to 3×10^4 cells per 100 μL of media, and grown overnight in a 37° C. incubator. The next day, 50 μL of antigen-matched CyTaC solution was added at a concentration to result in 10 μM to 0.01 nM final assay concentration, followed by the addition of 50 μL anti-cotinine immune effector cells (i.e. CAR-T cells, CAR-NK92 cells) at a ratio of 5:1 effector cells to antigen-presenting target cells. The samples were placed in Live-Cell Analysis (Incucyte®) instrument, and the fluorescence of the wells was recorded every 2 hours for an additional 24 to 48 hours.
as §3, with “were evaluated” for “were tested”, “CAR-NK92) mediated cell cytotoxicity” for “CAR-NK92) activation”, “by fluorescence of viable cells” for “by IFN-Gamma production”, “Table 7 and FIG. 4.” for “Table 5.”, “pEC50 value at the 24 hour timepoint.” for “pEC50 value.”

[4] = tested on: αVβ6-expressing target cells; experiment: Pro-inflammatory cytokine (IFN-gamma) production assay, αVβ6-expressing target cells; details: EC50 in molar (M)
Protocol: as §1, §2
(§7) Antigen-expressing target cells were pre-seeded at a density 1.5×10^4 cells per 100 μL of media in each well of a 96-well plate and grown overnight. […] The anti-cotinine immune effector cells (i.e. CAR-T, CAR-NK92) were next added to the wells at a fixed ratio (between 1:1 and 10:1) of effector cells to antigen-expressing After co-incubation, the supernatants were removed from the wells and analyzed to determine IFNγ release using a pro-inflammatory cytokine production assay (Meso Scale Diagnostics V-PLEX Human IFNγ Kit) according to manufacturer's protocol. […]

[5] = tested on: αVβ6-expressing target cells; experiment: In vitro cell killing, Method 1: CellTiter-Glo luminescent cell viability assay, αVβ6-expressing target cells; details: anti-cotinine CAR-T, 24 hours, EC50 in molar (M), read-out: Cell Titler Glo pEC50 (CAR-T) (converted)
Protocol: as §4, §5, §6

[6] = tested on: FOLR-expressing target cells; experiment: Pro-inflammatory cytokine (IFN-gamma) production assay, FOLR-expressing target cells; details: EC50 in molar (M)
Protocol: as §1, §2, §7

[7] = tested on: FOLR-expressing target cells; experiment: In vitro cell killing, Method 1: CellTiter-Glo luminescent cell viability assay, FOLR-expressing target cells; details: 24 hours, EC50 in molar (M)
Protocol: as §4, §5, §6

[8] = tested on: FAP-expressing target cells; experiment: Pro-inflammatory cytokine (IFN-gamma) production assay, FAP-expressing target cells; details: EC50 in molar (M)
Protocol: as §1, §2, §7

[9] = tested on: FAP-expressing target cells; experiment: In vitro cell killing, Method 1: CellTiter-Glo luminescent cell viability assay, FAP-expressing target cells; details: 24 hours, EC50 in molar (M)
Protocol: as §4, §5, §6

[10] = CAR-T cell activation, PSMA-targeting CyTaCs, read-out: IFNγ Production pEC50, LNCap (converted)
[11] = anti-cotinine CAR-NK, read-out: Cell Titler Glo pEC50 (CAR-NK) (converted)
[12] = anti-cotinine CAR-T, read-out: Cell Titler Glo pEC50 (CAR-T) (converted)
[13] = anti-cotinine CAR-NK, read-out: IFNγ Production pEC50 (CAR-NK) (converted)
[14] = anti-cotinine CAR-T, read-out: IFNγ Production pEC50 (CAR-T) (converted)

SMILES: CN1C(=O)C[C@H](C(=O)NCCO[C@H]2CC[C@H](OCCCC(=O)N[C@H]3CC[C@H](C(=O)N[C@@H](Cc4ccc5ccccc5c4)C(=O)NCCCC[C@H](NC(=O)N[C@@H](CCC(=O)O)C(=O)O)C(=O)O)CC3)CC2)[C@H]1c1cccnc1 [compound 1]
EC50 (LNCap (PSMA+) cells [1]; [10]): 1.58e-10 M
EC50 (LNCap (PSMA+) cells [1]; anti-cotinine CAR-NK, PSMA-expressing target cells, read-out: IFNγ Production pEC50 (CAR-NK) (converted)): 1.58e-11 M
EC50 (LNCap (PSMA+) cells [1]; anti-cotinine CAR-T, PSMA-expressing target cells, read-out: IFNγ Production pEC50 (CAR-T) (converted)): 1.58e-10 M
EC50 [2, 11]: 3.98e-11 M
EC50 [2, 12]: 1.58e-10 M
EC50 (LNCap (PSMA+) cells [3]): 2.51e-10 M

SMILES: CN1C(=O)C[C@H](C(=O)NCCO[C@H]2CC[C@H](OCCCC(=O)N[C@H]3CC[C@H](C(=O)NCCNC(=O)[C@H](Cc4ccccc4)NC(=O)[C@H](Cc4ccccc4)NC(=O)CCCCCCCNC(=O)CC[C@H](NC(=O)N[C@@H](CCC(=O)O)C(=O)O)C(=O)O)CC3)CC2)[C@H]1c1cccnc1 [compound 2]
EC50 (LNCap (PSMA+) cells [1]; [10]): 5.01e-08 M
EC50 (LNCap (PSMA+) cells [3]): 3.98e-09 M

SMILES: CN1C(=O)C[C@H](C(=O)NCCNC(=O)[C@H](Cc2ccccc2)NC(=O)[C@H](Cc2ccccc2)NC(=O)CCCCCCCNC(=O)CC[C@H](NC(=O)N[C@@H](CCC(=O)O)C(=O)O)C(=O)O)[C@H]1c1cccnc1 [compound 3]
EC50 (LNCap (PSMA+) cells [1]; [10]): 1e-07 M
EC50 (LNCap (PSMA+) cells [3]): 1.26e-08 M

The next lines start with results.

EC50 (LNCap (PSMA+) cells [1]; [10]): 5.01e-08 M
SMILES: CN1C(=O)C[C@H](C(=O)NCCO[C@H]2CC[C@H](OCCCC(=O)N[C@H]3CC[C@H](C(=O)NCCNC(=O)CC[C@H](NC(=O)N[C@@H](CCC(=O)O)C(=O)O)C(=O)O)CC3)CC2)[C@H]1c1cccnc1 [compound 4]
EC50 (LNCap (PSMA+) cells [3]): 1e-08 M

EC50 [4, 13]: 5.01e-10 M
EC50 [4, 14]: 6.31e-10 M
SMILES: CN1C(=O)C[C@H](C(=O)NCCO[C@H]2CC[C@H](OCCCC(=O)N[C@H]3CC[C@H](C(=O)N4CCN(c5cccc([C@H](CC(=O)O)CN6CC[C@@H](CCc7ccc8c(n7)NCCC8)C6)c5)CC4)CC3)CC2)[C@H]1c1cccnc1 [compound 5]
EC50 [5]: 2.51e-10 M

EC50 [6, 13]: 2.51e-12 M
EC50 [6, 14]: 1.58e-08 M
SMILES: CN1C(=O)C[C@H](C(=O)NCCO[C@H]2CC[C@H](OCCCC(=O)N[C@H]3CC[C@H](C(=O)NCCNC(=O)CC[C@H](NC(=O)c4ccc(NCc5cnc6nc(N)[nH]c(=O)c6n5)cc4)C(=O)O)CC3)CC2)[C@H]1c1cccnc1 [compound 6]
EC50 [7, 11]: 1e-09 M
Cell Titler Glo pEC50 (CAR-T) ([7]; anti-cotinine CAR-T): Inactive

EC50 [8, 13]: 5.01e-11 M
EC50 [8, 14]: 1e-09 M
SMILES: CN(CCNC(=O)[C@H]1CC[C@H](NC(=O)CCCO[C@H]2CC[C@H](OCCNC(=O)[C@H]3CC[C@H](NC(=O)CCCO[C@H]4CC[C@H](OCCNC(=O)[C@H]5CC(=O)N(C)[C@@H]5c5cccnc5)CC4)CC3)CC2)CC1)c1ccc2nccc(C(=O)NCC(=O)N3CC(F)(F)C[C@H]3C#N)c2c1 [compound 7]
EC50 [9, 11]: 5.01e-10 M
EC50 [9, 12]: 2e-10 M
